Source: ChEMBL document CHEMBL3301361, “Experimental in vitro DMPK and physicochemical data on a set of publicly disclosed compounds”
Values after ≈ are worked out from the molar mass of the structure shown. Non-standard residues stand in square brackets, D forms with d. Residues, ends and D or L forms follow the SMILES beside them. Dip = N[C@H](C(=O)O)C(c1ccccc1)c1ccccc1; Chg = N[C@H](C(=O)O)C1CCCCC1; NMeA = CN[C@@H](C)C(=O)O

Assays:
[1] = in vitro; settings: human, liver microsomes
[2] = physchem; settings: pH 7.4 buffer
[3] = in vitro; settings: human, plasma
[4] = physchem; settings: octan-1-ol/water

| SMILES | microsomal CLint [1] | fraction unbound at 5 h ([3]; PPB) | logD ([4]; pH 7.4, LogD7.4) | further results |
| --- | --- | --- | --- | --- |
| CCCCc1nc2c(N)nc3ccccc3c2n1CC(C)(C)O | < 3 µL/min/mg |  |  |  |
| Nc1nc(-c2ccccn2)nc(N)c1Cc1ccc(Cl)cc1Cl | 37.1 µL/min/mg |  |  |  |
| Cc1ccc(CO)cc1N(C)c1ccnc(Nc2cc(N3CCCOCC3)cc(N3CCOCC3)c2)n1 |  | 0.0556 | 3.3 | solubility thermodynamic [2]: 91.2 µM (≈ 46 µg/mL) |
| O=C(O)COc1ccc(Br)cc1-c1ccccc1 | < 3 µL/min/mg |  |  |  |
| CCS(=O)(=O)c1ccc(-c2cc(C(F)(F)F)ccc2OCC(N)=O)c(C)c1 | < 3 µL/min/mg |  |  |  |
| CN(C(=O)Cc1ccc(S(N)(=O)=O)cc1)C1CCN(CCC(c2ccccc2)c2ccccc2)CC1 | 12 µL/min/mg |  |  |  |
| Cc1ccc(NC(=O)c2cccc(N3CCOCC3)c2)cc1NC(=O)c1ccc(OCc2ccccn2)cc1 | 30.3 µL/min/mg |  |  |  |
| Cc1c(Sc2ccc(Cl)cc2)c2cccc(Cl)c2n1CC(=O)O | < 3 µL/min/mg |  |  |  |
| Cc1c(Sc2ccc(Cl)cc2)c2ccc(Cl)cc2n1CC(=O)O | < 3 µL/min/mg |  |  |  |
| Cc1c(Sc2ccc(Cl)cc2)c2c(C#N)c(Cl)ccc2n1CC(=O)O | 4 µL/min/mg |  |  |  |
| CC(=O)Nc1ccc2c(c1)c(Sc1ccc(Cl)cc1)c(C)n2CC(=O)O | 36 µL/min/mg |  |  |  |
| Cc1c(Sc2ccc(Cl)cc2)c2c(-c3ccccc3)cccc2n1CC(=O)O | < 3 µL/min/mg |  |  |  |
| Cc1c(Sc2ccc(Cl)cc2)c2cc(-c3ccccc3)ccc2n1CC(=O)O | 16 µL/min/mg |  |  |  |
| COc1ccc(Sc2c(C)n(CC(=O)O)c3ccc(C)cc23)cc1 | < 3 µL/min/mg |  |  |  |
| Cc1ccc(NC(=O)c2ccc(C#N)cc2)cc1-n1cnc2ccc(N3CCN(C)CC3)cc2c1=O |  | 0.319 | 2.73 | solubility thermodynamic [2]: 32.4 µM (≈ 15.5 µg/mL) |
| Cc1ccc(NC(=O)c2ccno2)cc1-n1cnc2ccc(N3CCN(C)CC3)cc2c1=O | < 3 µL/min/mg |  |  |  |
| Cc1ccc(NC(=O)c2cscn2)cc1-n1cnc2ccc(N3CCN(C)CC3)cc2c1=O | < 3 µL/min/mg |  |  |  |
| Cc1ccc(CCNC(=O)c2ccc3sc(CO)nc3c2)cc1 |  | 0.0293 |  | solubility thermodynamic [2]: 16.2 µM (≈ 5.29 µg/mL) |
| N#Cc1cccc(C[C@@H](C(=O)O)N2CCC(CN3CCC(Oc4ccc(Cl)c(Cl)c4)CC3)CC2)c1 | < 3 µL/min/mg |  |  |  |
| O=C(O)[C@H](Cc1ccc(Cl)cc1)N1CCC(CN2CCC(Oc3ccc(Cl)c(Cl)c3)CC2)CC1 | < 3 µL/min/mg |  |  |  |

| SMILES | microsomal CLint [1] | fraction unbound at 5 h ([3]; PPB) | logD ([4]; pH 7.4, LogD7.4) | further results |
| --- | --- | --- | --- | --- |
| Cc1c(CC(=O)O)c2cc(F)ccc2n1Cc1nc2ccccc2s1 | < 3 µL/min/mg |  |  |  |
| CC(C)Cn1c(=O)n(C)c(=O)c2c(C(=O)N3CC[C@@H](O)C3)c(Cc3ccnc4ccc(F)cc34)sc21 |  | 0.46 | 1.95 | solubility thermodynamic [2]: 871 µM (≈ 445 µg/mL) |
| COCC[C@H](Oc1ncnc2c1cnn2-c1ccccc1Cl)C(=O)Nc1ccc(C)cn1 |  | 0.0457 | 3.6 | solubility thermodynamic [2]: 100 µM (≈ 45.3 µg/mL) |
| Cc1c(Cl)ccc(OC2CCN(C[C@H](O)CNC(=O)c3c[nH]c(=O)c4ccc(S(C)(=O)=O)cc34)CC2)c1Cl | < 3 µL/min/mg |  |  |  |
| CC(=O)Nc1ccc(O)cc1OC[C@@H](O)CN1CCC2(CC1)Cc1cc(Cl)ccc1O2 | 8 µL/min/mg |  |  |  |
| N=C(N)c1cc2c(/C=C/c3ccc4c(c3)OCO4)cccc2s1 | 7 µL/min/mg |  |  |  |
| CCc1nc2c(N)nc3ccccc3c2n1CC(C)(C)O | < 3 µL/min/mg |  |  |  |
| CC[C@H](CO)Nc1nc(SCc2cccc(F)c2F)nc2nc(NC(C)C)sc12 | 42 µL/min/mg |  |  |  |
| C[C@H](CO)Nc1nc(SCc2cccc(F)c2F)nc2nc(NS(C)(=O)=O)sc12 |  | 0.0114 | 0.92 | solubility thermodynamic [2]: 832 µM (≈ 384 µg/mL) |
| NC(=O)c1sc(-c2ccc(Cl)cc2)cc1N | 31 µL/min/mg |  |  |  |
| CCC(=O)N1CCN(C(=O)c2cc(Cc3n[nH]c(=O)c4ccccc34)ccc2F)CC1 |  | 0.371 | 1.22 | solubility thermodynamic [2]: 251 µM (≈ 106 µg/mL) |
| Cc1ccc2c(N)c(C(N)=O)sc2n1 | 13 µL/min/mg |  |  |  |
| N=C(N)c1cc2c(OCc3ccccc3)cccc2s1 | 11 µL/min/mg |  |  |  |
| CN[C@@H](C)C(=O)N[C@H](C(=O)N1CCC[C@H]1C(=O)N[C@H](C(=O)OC)C(c1ccccc1)c1ccccc1)C1CCCCC1 (H-[NMeA][Chg]P[Dip]-OMe) |  | 0.176 | 2.42 |  |
| CC(C(=O)O)c1ccc2oc(-c3ccc(Cl)cc3)nc2c1 (stereo not drawn) [BENOXAPROFEN] |  | 0.0024 | 1.3 |  |
| Cc1c(N)cccc1Cn1ccc(OCCc2cccs2)cc1=O [CG-400549] |  | 0.0499 | 2.78 |  |
| CNC1=Nc2ccc(Cl)cc2C(c2ccccc2)=[N+]([O-])C1 [CHLORDIAZEPOXIDE] |  |  |  | fraction unbound at 5 h [3]: 0.0229; logD ([4]; pH 7.4): 2.41 |
| CN(C)CCCN1c2ccccc2CCc2ccc(Cl)cc21 [CLOMIPRAMINE] |  | 0.0374 | 3.36 |  |
| CCc1nc2c(N)nc3ccccc3c2n1CCCCNS(C)(=O)=O [CPG-52852] |  | 0.334 | 1.24 | solubility thermodynamic [2]: 537 µM (≈ 194 µg/mL) |
| O=C(NO)C1(CS(=O)(=O)c2ccc(Oc3ccc(Cl)cc3)cc2)CCOCC1 [CTS-1027] |  | 0.02 |  | solubility thermodynamic [2]: 126 µM (≈ 53.6 µg/mL) |

| SMILES | microsomal CLint [1] | fraction unbound at 5 h ([3]; PPB) | logD ([4]; pH 7.4, LogD7.4) | further results |
| --- | --- | --- | --- | --- |
| CC(C)N(CCC(C(N)=O)(c1ccccc1)c1ccccn1)C(C)C (stereo not drawn) [DISOPYRAMIDE] |  |  |  | fraction unbound at 5 h [3]: 0.666; logD ([4]; pH 7.4): -0.54 |
| C[C@]12N[C@H](Cc3ccccc31)c1ccccc12 [DIZOCILPINE] |  |  |  | fraction unbound at 5 h [3]: 0.529; logD ([4]; pH 7.4): 1.6 |
| CS(=O)(=O)c1ccc([C@@H](O)[C@@H](CF)NC(=O)C(Cl)Cl)cc1 [FLORFENICOL] |  |  |  | fraction unbound at 5 h [3]: 0.676; logD ([4]; pH 7.4): 0.44 |
| CCOC(=O)c1ncn2c1CN(C)C(=O)c1cc(F)ccc1-2 [FLUMAZENIL] |  |  |  | fraction unbound at 5 h [3]: 0.443; logD ([4]; pH 7.4): 1.1 |
| O=C1OC2(c3ccc(O)cc3Oc3cc(O)ccc32)c2ccccc21 [FLUORESCEIN] |  | 0.19 | 0 |  |
| COC(=O)[C@H]1[C@@H](c2ccc(I)cc2)C[C@@H]2CC[C@H]1N2CCCF [IOFLUPANE] |  |  |  | fraction unbound at 5 h [3]: 0.201; logD ([4]; pH 7.4): 2.3 |
| Nc1nc(Nc2ccc(S(N)(=O)=O)cc2)nn1C(=O)c1c(F)cccc1F [JNJ-7706621] |  | 0.19 | 1.87 |  |
| CC(=O)N1CCN(c2ccc(OCC3COC(Cn4ccnc4)(c4ccc(Cl)cc4Cl)O3)cc2)CC1 (stereo not drawn) [KETOCONAZOLE] |  |  |  | solubility thermodynamic [2]: 6.2 µM (≈ 3.29 µg/mL); fraction unbound at 5 h [3]: 0.028 |
| Cc1c(OCC(F)(F)F)ccnc1C[S+]([O-])c1nc2ccccc2[nH]1 (stereo not drawn) [LANSOPRAZOLE] |  |  |  | fraction unbound at 5 h [3]: 0.016; logD ([4]; pH 7.4): 2.7 |
| COc1c2occc2cc2ccc(=O)oc12 [METHOXSALEN] |  | 0.0768 | 1.97 |  |
| CC(C)(C(=O)c1cccnc1)c1cccnc1 [METYRAPONE] |  | 0.888 | 1.45 |  |
| Clc1ccc(C(c2ccccc2)N2CCNCC2)cc1 (stereo not drawn) [NORCHLORCYCLIZINE] |  | 0.0581 | 1.94 |  |
| C1CCC(C(CC2CCCCN2)C2CCCCC2)CC1 (stereo not drawn) [PERHEXILINE] |  | 0.0156 | 3.02 |  |
| CN(C)CCCN1c2ccccc2Sc2ccccc21 [PROMAZINE] |  | 0.101 | 2.56 |  |
| CN(CCOc1ccc(CC2SC(=O)NC2=O)cc1)c1ccccn1 (stereo not drawn) [ROSIGLITAZONE] |  | 0.0026 | 2.5 | solubility thermodynamic [2]: 28.2 µM (≈ 10.1 µg/mL) |
| CCN(CC)CCNC(=O)c1c(C)[nH]c(/C=C2\C(=O)Nc3ccc(Cl)cc32)c1C [SU-11652] |  | 0.105 | 2.75 |  |
| COc1cc2nc(N3CCN(C(=O)C4CCCO4)CC3)nc(N)c2cc1OC (stereo not drawn) [TERAZOSIN] |  | 0.204 | 0.9 |  |
| COc1ccc(C(CN(C)C)C2(O)CCCCC2)cc1 (stereo not drawn) [VENLAFAXINE] |  |  |  | fraction unbound at 5 h [3]: 0.814; logD ([4]; pH 7.4): 0.99 |
